What follows are compounds tested against T1, Axl (Homo sapiens, UniProt P30530) (assay: HTRF KinEASE-TK biochemical potency assay, AXL). Settings: 5 nM AXL, 700 μM ATP, 800 nM TK Substrate-biotin.
T1 sequence (P30530 26-894): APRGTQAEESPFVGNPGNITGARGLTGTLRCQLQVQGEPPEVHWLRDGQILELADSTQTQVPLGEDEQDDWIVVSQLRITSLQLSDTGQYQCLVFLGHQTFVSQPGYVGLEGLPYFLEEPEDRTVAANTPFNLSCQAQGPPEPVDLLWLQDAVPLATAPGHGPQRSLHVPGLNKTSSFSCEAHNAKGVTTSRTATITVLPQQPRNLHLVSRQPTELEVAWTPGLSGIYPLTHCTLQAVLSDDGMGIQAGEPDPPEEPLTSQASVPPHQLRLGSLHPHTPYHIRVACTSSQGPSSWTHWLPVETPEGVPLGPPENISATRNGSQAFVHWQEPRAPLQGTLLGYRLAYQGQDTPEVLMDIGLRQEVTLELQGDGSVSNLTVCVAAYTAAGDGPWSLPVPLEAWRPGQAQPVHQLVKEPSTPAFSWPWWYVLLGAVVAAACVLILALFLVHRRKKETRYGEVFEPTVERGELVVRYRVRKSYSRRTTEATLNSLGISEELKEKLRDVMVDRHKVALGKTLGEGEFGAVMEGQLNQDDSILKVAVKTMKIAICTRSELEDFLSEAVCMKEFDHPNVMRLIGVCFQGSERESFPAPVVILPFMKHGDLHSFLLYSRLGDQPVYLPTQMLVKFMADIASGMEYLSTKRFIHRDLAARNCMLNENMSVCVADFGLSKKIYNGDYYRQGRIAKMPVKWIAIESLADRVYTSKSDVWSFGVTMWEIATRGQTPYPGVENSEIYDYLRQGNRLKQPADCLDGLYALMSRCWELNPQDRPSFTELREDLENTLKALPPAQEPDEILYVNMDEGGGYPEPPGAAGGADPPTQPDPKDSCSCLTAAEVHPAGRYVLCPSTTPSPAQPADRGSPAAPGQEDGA
Set-up: purchased Invitrogen
Summary of the method: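 Recombinant human kinase preincubated 1 h at RT with compound, then reacted 2 h at RT with final 5 nM AXL or 1 nM TYRO3/MER, 800 nM TK Substrate-biotin and 700 μM ATP in HEPES pH 7.4, 10 mM MgCl2, 1% DMSO. Phosphorylation read by HTRF 665/620 ratio, expressed as percent activity.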
`CCS(=N)(=O)c1ccc(-c2n[nH]c3ncc(-c4ccc5c(c4)CCC(C)(N4CCC[C@H]4C)CC5)cc23)cc1` (stereo partly drawn) [Example 100, Ethyl(imino)[4-(5-{7-methyl-7-[(2R)-2-methylpyrrolidin-1-yl]-6,7,8,9-tetrahydro-5H-benzo[7]annulen-2-yl}-1H-pyrazolo[3,4-b]pyridin-3-yl)phenyl]-λ^6-sulfanone] was tested, and the IC50 was < 100 nM.
In the case of `C[C@@H]1CCCN1[C@@H]1CCc2cc(-c3cnc4[nH]nc(-c5ccc(S(=O)(=O)C6CC6)cc5)c4c3)cnc2CC1` [Example 101, (2R)-1-(3-{3-[4-(Cyclopropanesulfonyl)phenyl]-1H-pyrazolo[3,4-b]pyridin-5-yl}-5H,6H,7H,8H,9H-cyclohepta[b]pyridin-7-yl)-2-methylpyrrolidine], the IC50 is reported as < 100 nM.
In the case of `C[C@@H]1CCCN1[C@H]1CCc2cc(-c3cnc4[nH]nc(-c5ccc(S(=O)(=O)C6CC6)cc5)c4c3)cnc2CC1` [Example 102, (2R)-1-[(7S)-3-{3-[4-(Cyclopropanesulfonyl)phenyl]-1H-pyrazolo[3,4-b]pyridin-5-yl}-5H,6H,7H,8H,9H-cyclohepta[b]pyridin-7-yl]-2-methylpyrrolidine], the IC50 is reported as 100 to 1000 nM.
For `COC1CCN(S(=O)(=O)c2ccc(-c3n[nH]c4ncc(-c5ccc6c(c5)CCC(C)(N5CCC[C@H]5C)CC6)cc34)cc2)CC1` (stereo partly drawn) [Example 103, 3-(4-((4-Methoxypiperidin-1-yl)sulfonyl)phenyl)-5-(7-methyl-7-((R)-2-methylpyrrolidin-1-yl)-6,7,8,9-tetrahydro-5H-benzo[7]annulen-2-yl)-1H-pyrazolo[3,4-b]pyridine], the IC50 was < 100 nM.
In the case of `C[C@@H]1CCCN1C1(C)CCc2ccc(-c3cnc4[nH]nc(-c5ccc(S(=O)(=O)N6CCC6)cc5)c4c3)cc2CC1` (stereo partly drawn) [Example 104, (2R)-1-(2-{3-[4-(Azetidine-1-sulfonyl)phenyl]-1H-pyrazolo[3,4-b]pyridin-5-yl}-7-methyl-6,7,8,9-tetrahydro-5H-benzo[7]annulen-7-yl)-2-methylpyrrolidine], the IC50 is reported as < 100 nM.
For `C[C@@H]1CCCN1C1(C)CCc2ccc(-c3cnc4[nH]cc(-c5ccc(S(=O)(=O)C6CC6)cc5)c4c3)cc2CC1` (stereo partly drawn) [Example 105, (2R)-1-(2-{3-[4-(Cyclopropanesulfonyl)phenyl]-1H-pyrrolo[2,3-b]pyridin-5-yl}-7-methyl-6,7,8,9-tetrahydro-5H-benzo[7]annulen-7-yl)-2-methylpyrrolidine], the IC50 was < 100 nM.
For `C[C@@H]1CCCN1C1(C)CCc2ccc(-c3cnc4[nH]nc(-c5ccc(N6CCOCC6)cc5)c4c3)cc2CC1` (stereo partly drawn) [Example 107, 4-[4-(5-{7-Methyl-7-[(2R)-2-methylpyrrolidin-1-yl]-6,7,8,9-tetrahydro-5H-benzo[7]annulen-2-yl}-1H-pyrazolo[3,4-b]pyridin-3-yl)phenyl]morpholine], the IC50 was < 100 nM.
In the case of `COCCNCc1ccc(-c2n[nH]c3ncc(-c4ccc5c(c4)CCC(C)(N4CCC[C@H]4C)CC5)cc23)cc1` (stereo partly drawn) [Example 108, (2-Methoxyethyl)({[4-(5-{7-methyl-7-[(2R)-2-methylpyrrolidin-1-yl]-6,7,8,9-tetrahydro-5H-benzo[7]annulen-2-yl}-1H-pyrazolo[3,4-b]pyridin-3-yl)phenyl]methyl})amine], the IC50 is reported as < 100 nM.
`C[C@@H]1CCCN1C1CCc2ccc(-c3cnc4[nH]nc(-c5ccc(S(=O)(=O)C6CC6)cc5)c4c3)cc2C(C)(C)C1` (stereo partly drawn) [Example 109, (2R)-1-(2-{3-[4-(Cyclopropanesulfonyl)phenyl]-1H-pyrazolo[3,4-b]pyridin-5-yl}-9,9-dimethyl-6,7,8,9-tetrahydro-5H-benzo[7]annulen-7-yl)-2-methylpyrrolidine] was tested, and the IC50 was < 100 nM.
With `COCCOc1ccc(-c2n[nH]c3ncc(-c4ccc5c(c4)CCC(C)(N4CCC[C@H]4C)CC5)cc23)cc1` (stereo partly drawn) [Example 110, 3-(4-(2-Methoxyethoxy)phenyl)-5-(7-methyl-7-((R)-2-methylpyrrolidin-1-yl)-6,7,8,9-tetrahydro-5H-benzo[7]annulen-2-yl)-1H-pyrazolo[3,4-b]pyridine] the IC50 was < 100 nM.
`COCCS(=O)(=O)c1ccc(-c2n[nH]c3ncc(-c4ccc5c(c4)CCC(C)(N4CCC[C@H]4C)CC5)cc23)cc1` (stereo partly drawn) [Example 111, (2R)-1-(2-{3-[4-(2-Methoxyethanesulfonyl)phenyl]-1H-pyrazolo[3,4-b]pyridin-5-yl}-7-methyl-6,7,8,9-tetrahydro-5H-benzo[7]annulen-7-yl)-2-methylpyrrolidine] was tested, and the IC50 was < 100 nM.
With `O=C([C@@H]1CCCN1)N1CCc2ccc(-c3cnc4[nH]nc(-c5ccc(S(=O)(=O)C6CC6)cc5)c4c3)cc2CC1` [Example 112, 7-{3-[4-(Cyclopropanesulfonyl)phenyl]-1H-pyrazolo[3,4-b]pyridin-5-yl}-3-[(2S)-pyrrolidine-2-carbonyl]-2,3,4,5-tetrahydro-1H-3-benzazepine] the IC50 was < 100 nM.
`O=C([C@H]1CCCN1)N1CCc2ccc(-c3cnc4[nH]nc(-c5ccc(S(=O)(=O)C6CC6)cc5)c4c3)cc2CC1` [Example 113, 7-{3-[4-(Cyclopropanesulfonyl)phenyl]-1H-pyrazolo[3,4-b]pyridin-5-yl}-3-[(2R)-pyrrolidine-2-carbonyl]-2,3,4,5-tetrahydro-1H-3-benzazepine] was tested, and the IC50 was < 100 nM.
With `COc1cc(-c2n[nH]c3ncc(-c4ccc5c(c4)CCC(C)(N4CCC[C@H]4C)CC5)cc23)ccc1OC[C@H]1COCCO1` (stereo partly drawn) [Example 114, (2R)-1-{2-[3-(4-{[(2R)-1,4-Dioxan-2-yl]methoxy}-3-methoxyphenyl)-1H-pyrazolo[3,4-b]pyridin-5-yl]-7-methyl-6,7,8,9-tetrahydro-5H-benzo[7]annulen-7-yl}-2-methylpyrrolidine] the IC50 was < 100 nM.
With `CC1(N[C@H]2CCOC2)CCc2ccc(-c3cnc4[nH]nc(-c5ccc(S(=O)(=O)C6CC6)cc5)c4c3)cc2CC1` (stereo partly drawn) [Example 115, (3S)-N-(2-{3-[4-(Cyclopropanesulfonyl)phenyl]-1H-pyrazolo[3,4-b]pyridin-5-yl}-7-methyl-6,7,8,9-tetrahydro-5H-benzo[7]annulen-7-yl)oxolan-3-amine] the IC50 was < 100 nM.
In the case of `C[C@@H]1CCCN1C1(C)CCc2ccc(-c3cnc4[nH]nc(-c5ccc(C(=O)N[C@H]6CCOC6)cc5)c4c3)cc2CC1` (stereo partly drawn) [Example 117, 4-(5-{7-Methyl-7-[(2R)-2-methylpyrrolidin-1-yl]-6,7,8,9-tetrahydro-5H-benzo[7]annulen-2-yl}-1H-pyrazolo[3,4-b]pyridin-3-yl)-N-[(3S)-oxolan-3-yl]benzamide], the IC50 is reported as < 100 nM.
`C[C@@H]1CCCN1C1(C)CCc2ccc(-c3cnc4[nH]nc(-c5ccc(C(=O)N6CCCC6)cc5)c4c3)cc2CC1` (stereo partly drawn) [Example 118, (2R)-2-Methyl-1-(7-methyl-2-{3-[4-(pyrrolidine-1-carbonyl)phenyl]-1H-pyrazolo[3,4-b]pyridin-5-yl}-6,7,8,9-tetrahydro-5H-benzo[7]annulen-7-yl)pyrrolidine] was tested, and the IC50 was < 100 nM.
`Cc1cc(-c2n[nH]c3ncc(-c4ccc5c(c4)CCN(C4CC4)CC5)cc23)ccc1C(=O)N1CCNCC1` [Example 119, 3-Cyclopropyl-7-{3-[3-methyl-4-(piperazine-1-carbonyl)phenyl]-1H-pyrazolo[3,4-b]pyridin-5-yl}-2,3,4,5-tetrahydro-1H-3-benzazepine] was tested, and the IC50 was < 100 nM.
With `CC1(N2CCc3ccc(-c4cnc5[nH]nc(-c6ccc(S(=O)(=O)C7CC7)cc6)c5c4)cc3CC2)CCCC1` [Example 120, 7-{3-[4-(Cyclopropanesulfonyl)phenyl]-1H-pyrazolo[3,4-b]pyridin-5-yl}-3-(1-methylcyclopentyl)-2,3,4,5-tetrahydro-1H-3-benzazepine] the IC50 was < 100 nM.
`O=C1OCCN1c1ccc(-c2n[nH]c3ncc(-c4ccc5c(c4)CC[C@@H](N4C6COCC4C6)CC5)cc23)cc1` [Example 121, 3-(4-{5-[(7S)-7-{3-oxa-6-azabicyclo[3.1.1]heptan-6-yl}-6,7,8,9-tetrahydro-5H-benzo[7]annulen-2-yl]-2H-pyrazolo[3,4-b]pyridin-3-yl}phenyl)-1,3-oxazolidin-2-one] was tested, and the IC50 was < 100 nM.
For `O=C1CCCN1c1ccc(-c2n[nH]c3ncc(-c4ccc5c(c4)CC[C@@H](N4C6COCC4C6)CC5)cc23)cc1` [Example 122, 1-(4-{5-[(7S)-7-{3-oxa-6-azabicyclo[3.1.1]heptan-6-yl}-6,7,8,9-tetrahydro-5H-benzo[7]annulen-2-yl]-2H-pyrazolo[3,4-b]pyridin-3-yl}phenyl)pyrrolidin-2-one], the IC50 was < 100 nM.
In the case of `COCCOc1ccc(-c2n[nH]c3ncc(-c4ccc5c(c4)CC[C@@H](N4C6COCC4C6)CC5)cc23)cc1` [Example 123, 6-[(7S)-2-{3-[4-(2-methoxyethoxy)phenyl]-2H-pyrazolo[3,4-b]pyridin-5-yl}-6,7,8,9-tetrahydro-5H-benzo[7]annulen-7-yl]-3-oxa-6-azabicyclo[3.1.1]heptane], the IC50 is reported as < 100 nM.
